Key:
ROCK1 = ROCK1 (Homo sapiens (Human), UniProt Q13464); test: ROCK1 kinase IC50, biological test method similar to ROCK2 assay; type: biochemical
Protocol: (§1) The kinase IC50 was determined by a commercialized CISBIO kinase detection kit, HTRF KinEASE-STK S2 kit (62ST2PEC). ROCK2 (01-119) employed in the reaction was purchased from Carna Biosciences.
(§2) Before the assay, the following working solutions as needed were formulated with corresponding reagents according to the instruction of the kinase detection kit: 1×kinase buffer, 5×STK-S2 substrate working solution (1.5 μM) and 5×ATP working solution (1.5 μM), 5×ROCK2 kinase working solution, 4×Streptavidin-XL665 working solution, and 4×STK-Ab-Cryptate 2 detection solution. Then the assay was performed according to the following procedure.
(§3) A solution of a compound at a concentration of 10000 nM was prepared with the 1×kinase buffer containing 2.5% DMSO. Gradient dilution of the solution of the compound was performed with the kinase buffer containing DMSO, so as to obtain solutions of a test compound at 9 different concentrations. In addition to wells of test compounds, a positive well (containing all the reagents except the compound) and a negative well (containing all the reagents except the test compound and kinase) were set. Except for the control wells (positive and negative wells), a solution of a test compound (4 μL) was added to each of the reaction wells, and a solution of 2.5% DMSO was added to the control wells. Then the substrate (2 μM, i.e., 2 μL 5×STK-S2 substrate working solution) was added to each of the reaction wells. The 5×ROCK2 kinase working solution (2 μL, containing 1.4 ng ROCK2 kinase) was added to each of the reaction wells except for the negative well, the volume of which was made up with the 1×kinase buffer (2 μL). The 5×ATP working solution (2 μL) was added to each of the reaction wells, and the mixtures were incubated at room temperature for 2 hours. After the kinase reaction was complete, the 4×Streptavidin-XL665 working solution was added to each of the reaction wells, the solutions were mixed, followed by immediate addition of the 4×STK-Ab-Cryptate 2 detection solution (5 μL), and the mixtures were incubated at room temperature for 1 hour. The fluorescence signal was read on ENVISION (Perkinelmer) (excitation wavelength: 320 inn, and emission wavelength: 665 nm and 615 nm). The inhibitory rate in each well was calculated based on the fluorescence intensity value: ER (Emission Ratio)_(fluorescence intensity at 665 nm/fluorescence intensity at 615 nm); inhibitory rate=(ERpositive−ERtest compound)/(ERpositive−ERnegative)*100%. Curves were plotted and fitted to obtain the median inhibitory concentration (IC50) of each teat compound with the PRISM 5.0 software. According to a biological test method similar to the above, the IC50 values of the compounds on ROCK1 were also tested.

ROCK2 = ROCK2 (Homo sapiens, UniProt O75116); test: ROCK2 kinase IC50, HTRF KinEASE-STK S2 kit; type: biochemical; conditions: 2 hours at room temperature
Sequence of ROCK2 (O75116 whole entry, looked up): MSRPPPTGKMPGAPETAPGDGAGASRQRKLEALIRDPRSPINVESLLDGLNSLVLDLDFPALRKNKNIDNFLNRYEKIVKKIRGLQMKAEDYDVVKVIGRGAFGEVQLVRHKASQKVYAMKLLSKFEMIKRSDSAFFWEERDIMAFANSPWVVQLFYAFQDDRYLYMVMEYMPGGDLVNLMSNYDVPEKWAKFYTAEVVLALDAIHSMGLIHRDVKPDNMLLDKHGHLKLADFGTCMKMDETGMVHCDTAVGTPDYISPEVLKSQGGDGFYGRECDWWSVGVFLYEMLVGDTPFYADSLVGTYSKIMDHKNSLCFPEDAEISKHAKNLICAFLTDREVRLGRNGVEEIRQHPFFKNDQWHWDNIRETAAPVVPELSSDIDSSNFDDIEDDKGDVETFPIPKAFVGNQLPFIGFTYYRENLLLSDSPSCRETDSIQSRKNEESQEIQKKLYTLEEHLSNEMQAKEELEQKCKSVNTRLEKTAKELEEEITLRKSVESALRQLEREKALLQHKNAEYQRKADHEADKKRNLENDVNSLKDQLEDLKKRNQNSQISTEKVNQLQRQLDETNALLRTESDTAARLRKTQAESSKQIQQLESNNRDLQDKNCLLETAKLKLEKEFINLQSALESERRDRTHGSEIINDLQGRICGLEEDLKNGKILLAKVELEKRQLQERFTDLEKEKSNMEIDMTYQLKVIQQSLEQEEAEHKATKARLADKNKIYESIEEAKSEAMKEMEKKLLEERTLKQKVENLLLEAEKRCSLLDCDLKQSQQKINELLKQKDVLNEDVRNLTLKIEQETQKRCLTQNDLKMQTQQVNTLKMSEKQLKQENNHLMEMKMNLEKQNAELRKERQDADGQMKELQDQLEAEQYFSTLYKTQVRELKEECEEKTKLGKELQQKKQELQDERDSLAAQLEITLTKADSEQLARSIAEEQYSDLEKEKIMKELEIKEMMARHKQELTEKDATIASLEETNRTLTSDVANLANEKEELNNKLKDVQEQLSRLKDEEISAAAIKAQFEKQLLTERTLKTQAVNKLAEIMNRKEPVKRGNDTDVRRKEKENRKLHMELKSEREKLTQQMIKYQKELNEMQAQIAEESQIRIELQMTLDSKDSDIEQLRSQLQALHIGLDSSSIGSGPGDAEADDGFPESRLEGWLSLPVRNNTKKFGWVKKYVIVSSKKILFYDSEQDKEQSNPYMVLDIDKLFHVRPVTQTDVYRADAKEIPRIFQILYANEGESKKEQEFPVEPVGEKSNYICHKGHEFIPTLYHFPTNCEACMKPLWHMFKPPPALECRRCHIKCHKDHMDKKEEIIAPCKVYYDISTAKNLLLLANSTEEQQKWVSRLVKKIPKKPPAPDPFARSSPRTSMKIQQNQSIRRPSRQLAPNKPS
Protocol: as §1, §2, §3

Sequence of ROCK1 (Q13464 whole entry, species assumed): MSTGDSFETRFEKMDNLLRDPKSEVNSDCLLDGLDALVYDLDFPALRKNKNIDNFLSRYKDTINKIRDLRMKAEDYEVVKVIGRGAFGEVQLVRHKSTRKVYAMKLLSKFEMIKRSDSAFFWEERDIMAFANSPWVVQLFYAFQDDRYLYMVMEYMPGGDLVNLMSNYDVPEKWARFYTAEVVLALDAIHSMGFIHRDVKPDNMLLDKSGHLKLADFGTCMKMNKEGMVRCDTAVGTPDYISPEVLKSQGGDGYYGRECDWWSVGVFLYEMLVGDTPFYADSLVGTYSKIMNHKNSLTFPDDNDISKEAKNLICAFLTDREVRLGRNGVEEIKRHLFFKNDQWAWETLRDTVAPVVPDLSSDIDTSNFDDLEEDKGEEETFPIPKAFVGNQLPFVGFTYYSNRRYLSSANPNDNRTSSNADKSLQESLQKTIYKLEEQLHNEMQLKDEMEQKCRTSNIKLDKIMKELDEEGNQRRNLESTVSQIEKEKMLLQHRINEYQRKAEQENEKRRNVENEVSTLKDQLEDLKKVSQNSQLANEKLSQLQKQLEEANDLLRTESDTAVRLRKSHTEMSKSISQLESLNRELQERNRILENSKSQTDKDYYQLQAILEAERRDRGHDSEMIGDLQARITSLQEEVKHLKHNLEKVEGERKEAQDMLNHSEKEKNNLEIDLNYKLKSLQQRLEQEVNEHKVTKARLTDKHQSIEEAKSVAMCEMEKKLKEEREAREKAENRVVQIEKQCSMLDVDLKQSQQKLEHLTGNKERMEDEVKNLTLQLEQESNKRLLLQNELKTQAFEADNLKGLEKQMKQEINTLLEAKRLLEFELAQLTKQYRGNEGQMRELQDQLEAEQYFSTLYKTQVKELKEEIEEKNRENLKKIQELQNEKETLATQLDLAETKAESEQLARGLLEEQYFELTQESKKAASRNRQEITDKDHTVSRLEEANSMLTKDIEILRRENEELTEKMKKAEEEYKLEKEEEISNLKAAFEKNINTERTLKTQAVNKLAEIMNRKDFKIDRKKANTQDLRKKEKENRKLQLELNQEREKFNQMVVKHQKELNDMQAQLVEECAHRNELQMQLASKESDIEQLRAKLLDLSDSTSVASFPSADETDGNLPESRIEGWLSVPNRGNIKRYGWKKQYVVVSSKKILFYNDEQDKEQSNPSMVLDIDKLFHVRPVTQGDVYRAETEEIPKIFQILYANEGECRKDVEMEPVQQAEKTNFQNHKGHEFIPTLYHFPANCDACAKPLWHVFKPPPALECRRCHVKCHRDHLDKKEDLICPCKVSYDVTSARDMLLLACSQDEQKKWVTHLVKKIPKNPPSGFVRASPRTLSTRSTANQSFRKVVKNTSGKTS

| Compound | IC50 (ROCK1) | IC50 (ROCK2) |
| --- | --- | --- |
| CC(CC(=O)N1CCc2sc(-c3ncc(F)c(Nc4ccc5c(=O)[nH]ccc5c4)n3)cc2C1)C(F)(F)F (centres unmarked) [C47, 6-((5-fluoro-2-(5-(4,4,4-trifluoro-3-methylbutanoyl)-4,5,6,7-tetrahydrothieno[3,2-c]pyridin-2-yl)pyrimidin-4-yl)amino)isoquinolin-1(2H)-one] | > 10000 nM | 15 nM |
| O=C(C1CCC(F)(F)CC1)N1Cc2ccc(-c3ncc(F)c(Nc4ccc5c(=O)[nH]ccc5c4)n3)cc2C1 [C13, 6-((2-(2-(4,4-difluorocyclohexane-1-carbonyl)isoindolin-5-yl)-5-fluoropyrimidin-4-yl)amino)isoquinolin-1(2H)-one] | > 10000 nM | 38 nM |
| COCn1c(C(=O)N2CC(F)(F)C2)cc2ccc(-c3nccc(Nc4ccc5c(=O)[nH]ccc5c4)n3)cc21 [C21, 6-((2-(2-(3,3-difluoro-azetidine-1-carbonyl)-1-(methoxy-methyl)-1H-indol-6-yl)pyrimidin-4-yl)amino) isoquinolin-1(2H)-one] | > 10000 nM | 108 nM |
| O=C1NCc2cc(Nc3nc(-c4ccc5c(c4)CN(C(=O)OC4CC(F)(F)C4)C5)ncc3F)ccc21 [C30, 3,3-difluoro-cyclobutyl 5-(5-fluoro-4-((1-oxo-isoindolin-5-yl)amino)pyrimidin-2-yl) isoindoline-2-carboxylate] | > 10000 nM | 216 nM |
| O=C(C1CC(F)(F)C1)N1Cc2ccc(-c3ncc(F)c(Nc4ccc5c(=O)[nH]ccc5c4)n3)cc2C1 [C8, 6-((2-(2-(3,3-difluoroo-cyclobutane-l-carbonyl)isoindolin-5-yl)-5-fluoro-pyrimidin-4-yl)amino) isoquinolin-1(2H)-one] | > 10000 nM | 16 nM |
| O=C1NCc2cc(Nc3nc(-c4ccc5c(c4)CN(C(=O)C4CC(F)(F)C4)C5)ncc3F)ccc21 [C3, 5-((2-(2-(3,3-difluoroo-cyclobutane-1-carbonyl)isoindolin-5-yl)-5-fluoro-pyrimidin-4-yl)amino) isoindolin-1-one] | > 10000 nM | 287 nM |
| CC(C)(C)CC(=O)N1CCc2sc(-c3ncc(F)c(Nc4ccc5c(c4)CCNC5=O)n3)cc2C1 [C53, 6-((2-(5-(3,3-dimethylbutanoyl)-4,5,6,7-tetrahydrothieno [3,2-c]pyridin-2-yl)-5-fluoropyrimidin-4-yl)amino)-3,4-dihydroisoquinolin-1(2H)-one] | > 10000 nM | 135 nM |
| O=C(C1CC(F)(F)C1)N1Cc2ccc(-c3ncc(F)c(Nc4ccc5c(=O)[nH]cc(Cl)c5c4)n3)cc2C1 [C5, 4-chloro-6-((2-(2-(3,3-difluoroo-cyclobutane-1-carbonyl)isoindolin-5-yl)-5-fluoro-pyrimidin-4-yl)amino) isoquinolin-1(2H)-one] | > 10000 nM | 13 nM |
| O=C(OC1CCC1)N1CCc2cc(-c3ncc(F)c(Nc4ccc5c(=O)[nH]ccc5c4)n3)ccc2C1 [C26, cyclobutyl 6-(5-fluoro-4-((1-oxo-1,2-dihydro-isoquinolin-6-yl)amino)pyrimidin-2-yl)-3,4-dihydro-isoquinolin-2(1H)-carboxylate] | > 10000 nM | 356 nM |
| CC(CC(=O)N1CCc2cc(-c3ncc(F)c(Nc4ccc5c(=O)[nH]ccc5c4)n3)ccc21)C(F)(F)F (centres unmarked) [C71, 6-((5-fluoro-2-(1-(4,4,4-trifluoro-3-methyl-butanoyl)indolin-5-yl)pyrimidin-4-yl)amino) isoquinolin-1(2H)-one] | > 10000 nM | 25 nM |
| CC(OC(=O)N1CCc2cc(-c3ncc(F)c(Nc4ccc5c(=O)[nH]ccc5c4)n3)ccc2C1)C(F)(F)F (centres unmarked) [C39, 1,1,1-trifluoro-propan-2-yl 6-(5-fluoro-4-((1-oxo-1,2-dihydro-isoquinolin-6-yl)amino)pyrimidin-2-yl)-3,4-dihydro-isoquinolin-2(1H)-carboxylate] | > 10000 nM | 102 nM |
| CC(CC(=O)N1Cc2ccc(-c3ncc(F)c(Nc4ccc5c(c4)CCNC5=O)n3)cc2C1)C(F)(F)F (centres unmarked) [C67, 6-((5-fluoro-2-(2-(4,4,4-trifluoro-3-methyl-butanoyl)isoindolin-5-yl)pyrimidin-4-yl)amino)-3,4-dihydro-isoquinolin-1(2H)-one] | > 10000 nM | 101 nM |
| O=C(OC1CC(F)(F)C1)N1CCc2cc(-c3nccc(Nc4ccc5c(=O)[nH]ccc5c4)n3)ccc2C1 [C25, 3,3-difluoro-cyclobutyl 6-(4-((1-oxo-1,2-dihydro-isoquinolin-6-yl)amino)pyrimidin-2-yl)-3,4-dihydro-isoquinolin-2(1H)-carboxylate] | > 10000 nM | 45 nM |
| CC(OC(=O)N1CCc2sc(-c3ncc(F)c(Nc4ccc5c(=O)[nH]ncc5c4)n3)cc2C1)C(F)(F)F (centres unmarked) [C60, 1,1,1-trifluoropropan-2-yl 2-(5-fluoro-4-((1-oxo-1,2-dihydrophthalazin-6-yl)amino)pyrimidin-2-yl)-6,7-dihydrothieno[3,2-c]pyridine-5(4H)-carboxylate] | > 10000 nM | 13 nM |
| CC(C)(C)CC(=O)N1Cc2ccc(-c3nccc(Nc4ccc5c(=O)[nH]ccc5c4)n3)cc2C1 [C56, 6-((2-(2-(3,3-dimethyl-butanoyl)isoindolin-5-yl)pryimidin-4-yl)amino) isoquinolin-1(2H)-one] | > 10000 nM | 24 nM |
| CC(CC(=O)N1CCc2sc(-c3nccc(Nc4ccc5c(=O)[nH]ccc5c4)n3)cc2C1)C(F)(F)F (centres unmarked) [C49, 6-((2-(5-(4,4,4-trifluoro-3-methylbutanoyl)-4,5,6,7-tetrahydrothieno[3,2-c]pyridin-2-yl)pyrimidin-4-yl)amino)isoquinolin-1(2H)-one] | > 10000 nM | 7 nM |
| CC(CC(=O)N1Cc2ccc(-c3ncc(F)c(Nc4ccc5c(=O)[nH]ccc5c4)n3)cc2C1)C(F)(F)F (centres unmarked) [C37, 6-((5-fluoro-2-(2-(4,4,4-trifluoro-3-methylbutanoyl)isoindolin-5-yl)pyrimidin-4-yl)amino)isoquinolin-1(2H)-one] | > 10000 nM | 117 nM |
| O=C(C1CC(F)(F)C1)N1Cc2ccc(-c3nccc(Nc4ccc5c(=O)[nH]ccc5c4)n3)cc2C1 [C54, 6-((2-(2-(3,3-difluoroocyclobutane-1-carbonyl)isoindolin-5-yl)pyrimidin-4-yl)amino)isoquinolin-1(2H)-one] | > 10000 nM | 17 nM |
| O=C(OC1CC(F)(F)C1)N1CCc2sc(-c3ncc(F)c(Nc4ccc5c(=O)[nH]ccc5c4)n3)cc2C1 [C27, 3,3-difluorocyclobutyl 2-(5-fluoro-4-((1-oxo-1,2-dihydroisoquinolin-6-yl)amino)pyrimidin-2-yl)-6,7-dihydrothieno[3,2-c]pyridine-5(4H)-carboxylate] | > 10000 nM | 8 nM |
| CC(CC(=O)N1Cc2ccc(-c3nc(Nc4ccc5c(=O)[nH]ccc5c4)c4ccccc4n3)cc2C1)C(F)(F)F (centres unmarked) [C50] | > 10000 nM | 280 nM |
| O=C(N1Cc2ccc(-c3ncc(F)c(Nc4ccc5c(=O)[nH]ccc5c4)n3)cc2C1)C(F)(F)F [C62] | > 10000 nM | 139 nM |
| CC(C)(C)OC(=O)N1CCc2cc(-c3ncc(F)c(Nc4ccc5c(=O)[nH]ccc5c4)n3)ccc2C1 [C24, tert-butyl 6-(5-fluoro-4-((1-oxo-1,2-dihydro-isoquinolin-6-yl)amino)pyrimidin-2-yl)-3,4-dihydro-isoquinolin-2(1H)-carboxylate] | > 10000 nM | 222 nM |
| O=C(CCC(F)(F)F)N1CCc2cc(-c3ncc(F)c(Nc4ccc5c(=O)[nH]ccc5c4)n3)ccc21 [C70, 6-((5-fluoro-2-(1-(4,4,4-trifluoro-butanoyl)indolin-5-yl)pyrimidin-4-yl)amino) isoquinolin-1(2H)-one] | > 10000 nM | 15 nM |
| CC(OC(=O)N1CCc2sc(-c3ncc(F)c(Nc4ccc5c(=O)[nH]ccc5c4)n3)cc2C1)C(F)(F)F (centres unmarked) [C46, 1,1,1-trifluoropropan-2-yl 2-(5-fluoro-4-((1-oxo-1,2-dihydroisoquinolin-6-yl)amino)pyrimidin-2-yl)-6,7-dihydrothieno[3,2-c]pyridine-5(4H)-carboxylate] | > 10000 nM | 21 nM |
| O=C1NCCc2cc(Nc3nc(-c4cc5c(s4)CCN(C(=O)CCC(F)(F)F)C5)ncc3F)ccc21 [C69, 6-((5-fluoro-2-(5-(4,4,4-trifluorobutanoyl)-4,5,6,7-tetrahydrothieno[3,2-c]pyridin-2-yl)pyrimidin-4-yl)amino)-3,4-dihydroisoquinolin-1(2H)-one] | > 10000 nM | 45 nM |

Reference: US12398118B2, “Rho-associated protein kinase inhibitor, pharmaceutical composition comprising same, and use thereof” (BEIJING TIDE PHARMACEUTICAL CO., LTD., priority 2018, dated 2025)
